From ChEMBL document CHEMBL1201862, “PubChem BioAssay data set” (2004) come the findings set out here.

Some test systems named below: RXF 631; KM-20L2; M19-MEL; LXFL 529; DLD-1; SNB-78; HOP-18.
Common to all, as to experiment: NCI tumour cell line growth inhibition, 48 h

Structures are written as SMILES.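 Cultured in 96-well plates, cells were exposed to test compound for 48 hours across five concentrations. GI50 is the concentration that inhibits growth by half.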 Calls of active or inactive are those of the source. Cut-off read from the data, not from the text of the source: active = GI50 up to about 1.1 µM and inactive = higher.

Regarding `CCOC(=O)C1=C(Nc2ccccc2)OC/C1=N\NC(=O)Cc1ccccc1`, the GI50 in the assay with RXF 631, in the assay on KM-20L2, in the assay on M19-MEL, with LXFL 529, with DLD-1 and with SNB-78 was > 50 µM (inactive) each time. Further, the GI50 in the assay with HOP-18 was > 50 µM (inactive).

For `CCCCC1=CSC(c2ccccc2)=C(c2ccccc2)S1`, the GI50 is > 100 µM (inactive) in the assay on RXF 631; 42.8 µM (inactive) with KM-20L2; 38.9 µM (inactive) with M19-MEL; 8.28 µM (inactive) in the assay with LXFL 529; 82.6 µM (inactive) in the assay on DLD-1; > 100 µM (inactive) in the assay with SNB-78. Moreover, in the assay on HOP-18, the GI50 is > 100 µM (inactive).

On to `[O-][n+]1ccccc1S` [PYRITHIONE ZINC], for which the GI50 was 0.968 µM (active) with RXF 631; 1.04 µM (active) in the assay with KM-20L2; 0.562 µM (active) with M19-MEL; 0.327 µM (active) in the assay on LXFL 529; 0.115 µM (active) with DLD-1; 3.94 µM (inactive) in the assay on SNB-78. Further, the GI50 with HOP-18 is 3.78 µM (inactive).
